Results: US8455544B2, “Synthetic triterpenoids and methods of use in the treatment of disease” (Reata Pharmaecuticals, Inc., priority 2008, dated 2013)

Tests used:
[1] = tested on: NQO1 in Hepa1c1c7 murine hepatoma cells; details: concentration required to induce a two-fold increase in expression of NQO1, Hepa1c1c7 cells; cited from earlier work
[2] = tested on: patients with pancreatic cancer; experiment: Study of RTA 402 in combination with gemcitabine in patients with pancreatic cancer: eGFR; type: in vivo, human; parameters: unit not given here
Description: FIG. 5—RTA 402 increases GFR in human patients with cancer. Estimated glomerular filtration rate (eGFR) was measured in RTA 402-treated patients enrolled in a multi-month clinical trial for the treatment of cancer. All patients (n=11) dosed through six months were included in the analysis. The dosing information for these patients is provided in Example 5, below.
Some of these patients were enrolled in the Phase I study, whereas others were enrolled in a study of RTA 402 (in combination with gemcitabine) in patients with pancreatic cancer.

[3] = tested on: patients with diabetic nephropathy; experiment: Hyperinsulinemic euglycemic clamp test, Phase II study; type: in vivo, human; details: after the 28 day treatment
[4] = Serum creatinine in toxicology study, dogs; type: in vivo, beagle dogs; details: oral, daily for three months
Description: (§1) FIGS. 3a-d—RTA 402 reduces serum creatinine levels in monkeys, dogs, and rats. (FIG. 3a) Cynomolgus monkeys were administered RTA 402 orally at the indicated doses once daily for 28 days. The percent reduction of serum creatinine on Day 28 in RTA 402-treated monkeys relative to vehicle-treated control monkeys is shown. (FIG. 3b) RTA 402 was administered orally to beagle dogs at the indicated doses daily for three months. Control animals received vehicle (sesame oil). The percent change in serum creatinine at the three-month time point relative to baseline is shown. (FIG. 3c) Sprague-Dawley rats were administered RTA 402 orally at the indicated doses once daily for a period of one month. The percent reduction of serum creatinine at study completion in RTA 402-treated rats relative to vehicle-treated control rats is shown. (FIG. 3d) Sprague-Dawley rats were administered the amorphous form of RTA 402 orally at the indicated doses once daily for a period of three months. The percent reduction of serum creatinine at study completion in RTA 402-treated rats relative to vehicle-treated control rats is shown. […] For example, a reading of −15 on this axis indicates a 15% reduction in serum creatinine.
(§2) Serum creatinine has been measured in several animal species treated with RTA 402 in the course of toxicology studies. […]

[5] = tested on: patients with diabetic nephropathy; experiment: Phase II clinical trial in patients with diabetic nephropathy (type 2 diabetes with CKD); type: in vivo, human
Description: Serum creatinine has also been measured in patients with chronic kidney disease (CKD) enrolled in an open label Phase II clinical trial of RTA 402. These patients received RTA 402 once daily at three dose levels, 25 mg, 75 mg and 150 mg, for a total of 28 days.
A primary outcome measure for this study is determining the effects of RTA 402 administered orally at the three dose strengths on the glomerular filtration rate (as estimated by the MDRD formula) in patients with diabetic nephropathy.
Secondary outcome measures include: (1) an evaluation of the safety and tolerability of oral RTA 402 administered orally at the three different doses, in this patient population; (2) an evaluation of the effects of RTA 402 administered orally at the three dose strengths on the serum creatinine level, creatinine clearance, and urine albumin/creatinine ratio in patients with diabetic nephropathy; (3) an evaluation of the effects of RTA 402 administered orally at the three dose strengths on hemoglobin A1c in all patients enrolled and on insulin response by the hyperinsulinemic euglycemic clamp test in patients enrolled at only one of the study centers; (4) an evaluation of the effects of RTA 402 at the three different doses on a panel of markers of inflammation, renal injury, oxidative stress, and endothelial cell dysfunction.
The patient population selected for this study all had type 2 diabetes with CKD. Most had been diagnosed with poor glycemic control for two decades. CKD was established through elevated serum creatinine (SCr) levels. Most of the patients had been diagnosed with cardiovascular disease (CVD) and most were receiving standard of care (SOC) treatment for diabetes, CKD and CVD, (e.g., insulin, ACEI/ARB, β-blocker, diuretic, and statin). The baseline demographic can be summarized as follows:
The patient inclusion criteria were as follows: (1) diagnosis of type 2 diabetes; (2) serum creatinine in women 1.3-3.0 mg/dL (115-265 μmol/L), inclusive, and in men 1.5-3.0 mg/dL (133-265 μmol/L), inclusive; (3) patient must agree to practice effective contraception; (4) patient must have a negative urine pregnancy test within 72 hours prior to the first dose of study medication; (5) patient is willing and able to cooperate with all aspects of the protocol and is able to communicate effectively; (6) patient is willing and able to provide written informed consent to participate in this clinical study. […]

[6] = Serum creatinine in toxicology studies, rats; type: in vivo, Sprague-Dawley rats; details: oral, once daily, one month (crystalline) or three months (amorphous form)
Description: as §1, §2

COC(=O)[C@]12CCC(C)(C)C[C@H]1[C@H]1C(=O)C=C3[C@@]4(C)C=C(C#N)C(=O)C(C)(C)[C@@H]4CC[C@@]3(C)[C@]1(C)CC2 [RTA 402, methyl-2-cyano-3,12-dioxooleana-1,9-dien-28-oic acid]
NQO1 CD [1]: 1.0 nM
eGFR ([2]; Pt 1001, dose 150 mg, cycle 1, BL 68.8): 78.9
eGFR ([2]; Pt 1001, dose 150 mg, cycle 2, BL 68.8): 109.9
eGFR ([2]; Pt 1001, dose 150 mg, cycle 3, BL 68.8): 135.7
eGFR ([2]; Pt 1001, dose 150 mg, cycle 4, BL 68.8): 175.5
eGFR ([2]; Pt 1001, dose 150 mg, cycle 5, BL 68.8): 175.5
eGFR ([2]; Pt 1001, dose 150 mg, cycle 6, BL 68.8): 135.7
eGFR ([2]; Pt 1104, dose 300/150 mg, cycle 1, BL 67.3): 95.7
eGFR ([2]; Pt 1104, dose 300/150 mg, cycle 2, BL 67.3): 71.6
eGFR ([2]; Pt 1104, dose 300/150 mg, cycle 3, BL 67.3): 141.2
eGFR ([2]; Pt 1104, dose 300/150 mg, cycle 4, BL 67.3): 95.7
eGFR ([2]; Pt 1104, dose 300/150 mg, cycle 5, BL 67.3): 114.4
eGFR ([2]; Pt 1104, dose 300/150 mg, cycle 6, BL 67.3): 114.4
eGFR ([2]; Pt 1105, dose 300 mg, cycle 1, BL 82.4): 106.6
eGFR ([2]; Pt 1105, dose 300 mg, cycle 2, BL 82.4): 89.3
eGFR ([2]; Pt 1105, dose 300 mg, cycle 3, BL 82.4): 106.6
eGFR ([2]; Pt 1105, dose 300 mg, cycle 4, BL 82.4): 106.6
eGFR ([2]; Pt 1105, dose 300 mg, cycle 5, BL 82.4): 131.6
eGFR ([2]; Pt 1105, dose 300 mg, cycle 6, BL 82.4): 170.3
eGFR ([2]; Pt 1106, dose 300 mg, cycle 1, BL 89.0): 106.3
eGFR ([2]; Pt 1106, dose 300 mg, cycle 2, BL 89.0): 106.3
eGFR ([2]; Pt 1106, dose 300 mg, cycle 3, BL 89.0): 106.3
eGFR ([2]; Pt 1106, dose 300 mg, cycle 4, BL 89.0): 131.2
eGFR ([2]; Pt 1106, dose 300 mg, cycle 5, BL 89.0): 131.2
eGFR ([2]; Pt 1106, dose 300 mg, cycle 6, BL 89.0): 131.2
Glucose disposal rate (GDR) [3]: improvements
Glucose disposal rate (GDR) ([3]; more severely impaired patients (GDR<4), p≦0.02): statistically significant improvements
Serum creatinine levels relative to baseline [4]: Significant reductions
A1c reduction ([5]; 28 days, elevated baseline (≧7.0 at baseline), n=16): 0.50
Hemoglobin % A1c reduction ([5]; 28 days, elevated baseline (≧7.0 at baseline), n=35): 0.50 % A1c
A1c reduction ([5]; 28 days, intent-to-treat, n=21, on top of standard of care): 0.34
Hemoglobin % A1c reduction ([5]; 28 days, intent-to-treat, n=56): approximately 0.25 % A1c
GFR increase, response rate ([5]; 28 days, n=22): 86%
GFR improvement ([5]; 28 days, patients with Stage 4 renal disease): > 30%
Mean % A1c reduction ([5]; 28 days, patients with advanced (Stage 4) renal disease (GFR 15-29 ml/min)): approximately 0.77 % A1c
Eight measures of renal function and status ([5]; serum creatinine based eGFR, creatinine clearance, BUN, serum phosphorus, serum uric acid, Cystatin C, Adiponectin, Angiotensin II): improve significantly
Serum creatinine levels relative to control animals [6]: Significant reductions
